From patent US20250281424A1 (New York Blood Center, Inc, priority 2020, published 2025)
Entries after “also recorded” stand apart in the source; their conditions may differ.

Key:
human PF4 = target: T1, human PF4 (Homo sapiens, UniProt P02776); test: Inhibition of PF4 tetramer formation (BS3 cross-linking, SDS-PAGE); type: biochemical; conditions: for IC50: read-out: IC50 of PF4 tetramer formation inhibition; for inhibition at 5 µM: 5 μM inhibitor; for inhibition at 10 µM: 10 μM inhibitor (column A)
T1 construct: PF4 is a 70 amino acid, lysine-rich 7.8 kDa platelet-specific protein; made in house; host or cells: Escherichia coli BL21DE3 pLysS (pT7-7) and/or Drosophila S2 cells
T1 sequence (P02776 32-101): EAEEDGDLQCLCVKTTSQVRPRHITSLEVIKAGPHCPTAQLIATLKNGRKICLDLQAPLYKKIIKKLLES
Procedure, shortened: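 Monomer, dimer, trimer and tetramer fractions were quantified by densitometry after reducing 12% SDS-PAGE of BS3-cross-linked (0.2 mM, 30 min, room temperature) PF4. Before cross-linking, 10 μg/ml E. coli-expressed human WT PF4 in PBS was exposed to compound for 15 min at 37° C or 60 min at room temperature; controls lacked compound.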

[1] = target: T2, ultra large complexes (ULC) between PF4 tetramers and heparin (Homo sapiens, UniProt P02776); test: Inhibition of formation of ultra large complexes (ULC) of PF4 tetramers and heparin; type: biochemical; conditions: IC50 values are +/−20%
T2 construct: platelet factor 4 which is a 70 amino acid, lysine-rich, 7.8 kDa platelet-specific protein
T2 sequence (P02776 32-101): T1 sequence (P02776 32-101)
Method: Since ULCs are formed as part of a dynamic equilibrium between heparin and PF4, dynamic light scattering (DLS) was performed to measure the ability of the exemplified compounds to disrupt preformed ULCs. Samples were analyzed and included PF4 incubated in the absence or presence of unfractionated heparin (UFH) for 20 min at room temperature at PF4 to heparin ratios (PHR) of 1:0 (no heparin), 2:1, and 0.64:1. The samples were then analyzed using photon correlation spectroscopy on a DynaPro® DLS instrument and Dynamics® software (V6.7.6; […]) to obtain correlation function. The results of the DLS analysis indicate the percentage of ULCs and small PF4 particles. Data for the small particles (a population of particles with a mean hydrodynamic diameter of about 1 nm) and data for the large particles (a population of particles with a mean hydrodynamic diameter of about 300 nm) is assessed. Data are expressed as the percent of total intensity from each measurement, the mean of 10 measurements, and representative of two such experiments.
ELISA measurement and gel filtration measurement of ULC inhibition were performed as described in International Patent Publication No. WO2013/142328, which is incorporated herein by reference. Similarly, assays in which heparin concentrations are varied to determine the effect on ULC inhibition were performed as described in that publication.
Certain compounds were evaluated for their ability to inhibit formation of ultra large complexes (ULC) between PF4 tetramers and heparin.

[2] = Cytotoxicity HepG2 (MTS reduction); type: cell-based; conditions: human, HepG2 cells; read-out: Cytotox HepG2 EC50
[3] = Cytotoxicity NIH3T3 (MTS reduction); type: cell-based; conditions: mouse, NIH3T3 cells, 1 hour exposure in the absence of serum, N = 3, read-out: Cytotox NIH3T3 EC50
[4] = Human microsome stability; type: in vitro ADME; conditions: Human microsomes, compound conc = 0.5 μM, n = 1; read-out: Human microsome stability Half life t1/2
Source text: (§1) Certain exemplified compounds were examined for ADMET (absorption, distribution, metabolism, excretion and toxicity) profiling using conventional assays with the results shown in the Tables 3A-3C below.

[5] = Mouse microsome stability; type: in vitro ADME; conditions: Mouse microsomes, compound conc = 0.5 μM, n = 1; read-out: Mouse microsome stability Half life t1/2
Source text: as §1

human platelets = test: PF4-KKO induced platelet activation, P-selectin, human platelets; type: cell-based; conditions: for PF4-KKO induced platelet activation using P-selectin as a marker: human platelet activation assays, 20 μM and 40 μM (FIGS. 8 and 9)
[6] = tested on: FcγRIIA transgenic murine platelets; test: PF4-KKO induced platelet activation, P-selectin, FcγRIIA transgenic murine platelets; type: cell-based, mouse; conditions: for normalized P-selectin levels: FIG. 22; for preventing P-selectin expression: FcγRIIA transgenic murine platelets, 50 μM compound, 37.5 μg/ml PF4, 50 μg/ml KKO (FIGS. 14-21)
Method: Whole blood was diluted with 1× Tyrode buffer (5 mM N-2-hydroxyethylpiperazine-N′-2-ethanesulfonic acid, 0.1% BSA, 134 mM NaCl, 0.3 mM NaH2PO4, 3 mM KCl, 2 mM MgCl2, 12 mM NaHCO3, 5 mM glucose) with 0.02 U/ml apyrase and 1 μM PGE1 and centrifuged at 100 g for 10 min. Platelet rich plasma (PRP) was carefully removed and centrifuged at 1000 g for 5 min. Platelet pellet was resuspended in Tyrode buffer with 0.02 U/ml apyrase at 2×10^8/ml concentration at 37° C. PF4 antagonists are diluted in Tyrode buffer, and are incubated with 10 μg/ml human PF4 purified protein at room temperature for 30 min. The PF4-drug complex is then incubated with 1×10^8/ml platelets with 1 mM CaCl2, 0.1% BSA at 37° C. for 10 min. 40 μg/ml KKO and 10 μg/ml anti-CD62P (P-selectin) antibodies are added into the reaction. One milliliter ice-cold PBS is added to each reaction after 5 min of incubation. Labelled platelets are then analyzed by a BD Accuri C6 flow cytometer. The results are represented by both the mean fluorescence intensity and by the percentage of positive platelets.
37.5 μg/ml PF4 with/without 50 μM of the exemplified compound incubated with 3×10^7/ml platelets; 50 μg/ml KKO.

[7] = read-out: % inhibition of PF4 tetramer formation at single concentration of inhibitor

| Structure (SMILES) | inhibition at 100 µM (human PF4; 100 μM inhibitor, read-out: % inhibition of PF4 tetramer formation at single concentration of inhibitor) [%] | IC50 (human PF4) [µM] | IC50 [1] [µM] | half-life at 0.5 μM [4] [min] | half-life at 0.5 μM [5] [min] | inhibition at 30 µM (human PF4; 30 μM inhibitor, read-out: % inhibition of PF4 tetramer formation at single concentration of inhibitor) [%] | inhibition at 5 µM (human PF4; [7]) [%] | inhibition at 10 µM (human PF4; [7]) [%] | EC50 [2] [µg/mL] | EC50 at 1 h [3] [µg/mL] | PF4-KKO induced platelet activation using P-selectin as a marker (human platelets) | preventing PF4-KKO induced platelet activation using P-selectin as a marker (human platelets; human platelets (FIG. 12)) | normalized P-selectin levels [6] | preventing P-selectin expression [6] |
| --- | --- | --- | --- | --- | --- | --- | --- | --- | --- | --- | --- | --- | --- | --- |
| O=C(c1ccc2c(c1)C(=O)CC2=O)c1ccc2c(c1)C(=O)CC2=O [Example 4, 5,5′-carbonylbis(1h-indene-1,3(2h)-dione)] | 96 | 4 | 3 | 4.7 | 1.7 | – | – | – | > 250 | > 250 | – | – | – | – |
| CC(=O)C1(C(=O)OC(C)(C)C)C(=O)c2ccc(Oc3ccc4c(c3)C(=O)C(C(C)=O)(C(=O)OC(C)(C)C)C4=O)cc2C1=O (stereo not shown) [Example 5, 5-(2-acetyl-2-carbo-t-butoxy-2,3-dihydro-1,3dioxo-1h-inden-6-yloxy)-2-acetyl-2-carbo-t-butoxy-2,3-dihydro-1,3-dioxo-1h-indene] | – | 10.4 | 10 | – | – | – | – | – | > 3350 | > 3350 | – | – | – | – |
| O=C(c1ccc2c(c1)C(=O)C(C(=O)NCCc1ccc(F)cc1)C2=O)c1ccc2c(c1)C(=O)C(C(=O)NCCc1ccc(F)cc1)C2=O (stereo not shown) [Example 22, 5,5′-carbonylbis(1,3-dioxo-indan-2-carboxylic acid (2-(4-fluorophenyl)ethyl)-amide)] | – | 1.87 | – | 59.7 | 47.9 | – | 66 | 76 | – | – | inhibitory | – | modulate the activity of normalized P-selectin; also recorded: inhibition | efficacy |
| COc1ccccc1NC(=O)C1C(=O)c2ccc(C(=O)c3ccc4c(c3)C(=O)C(C(=O)Nc3ccccc3OC)C4=O)cc2C1=O (stereo not shown) [Example 28, 5,5′-carbonylbis(1,3-dioxo-indan-2-carboxylic acid (2-methoxyphenyl)-amide)] | – | 0.64 | – | > 180 | 52.2 | – | 82 | 65 | – | – | inhibitory | – | modulate the activity of normalized P-selectin; also recorded: inhibition | efficacy |
| O=C(O)CCNC(=O)C1C(=O)c2ccc(C(=O)c3ccc4c(c3)C(=O)C(C(=O)NCCC(=O)O)C4=O)cc2C1=O (stereo not shown) [Example 32, 5,5′-carbonylbis(3-[(1,3-dioxo-indane-2-carbonyl)-amino]-propionic acid)] | – | 2.99 | – | 54 | > 180 | – | 86 | 91 | – | – | inhibitory | – | modulate the activity of normalized P-selectin; also recorded: inhibition | efficacy |

More lines, main results first:

| inhibition at 100 µM (human PF4; 100 μM inhibitor, read-out: % inhibition of PF4 tetramer formation at single concentration of inhibitor) [%] | IC50 (human PF4) [µM] | IC50 [1] [µM] | half-life at 0.5 μM [4] [min] | half-life at 0.5 μM [5] [min] | inhibition at 30 µM (human PF4; 30 μM inhibitor, read-out: % inhibition of PF4 tetramer formation at single concentration of inhibitor) [%] | inhibition at 5 µM (human PF4; [7]) [%] | inhibition at 10 µM (human PF4; [7]) [%] | Structure (SMILES) | EC50 [2] [µg/mL] | EC50 at 1 h [3] [µg/mL] | PF4-KKO induced platelet activation using P-selectin as a marker (human platelets) | preventing PF4-KKO induced platelet activation using P-selectin as a marker (human platelets; human platelets (FIG. 12)) | normalized P-selectin levels [6] | preventing P-selectin expression [6] |
| --- | --- | --- | --- | --- | --- | --- | --- | --- | --- | --- | --- | --- | --- | --- |
| – | 3 | 11 | 116 | 93.8 | 93 | – | – | CCCNC(=O)C1C(=O)c2ccc(C(=O)c3ccc4c(c3)C(=O)C(C(=O)NCCC)C4=O)cc2C1=O (stereo not shown) [Example 15, 5,5′-carbonylbis(1,3-dioxo-indan-2-carboxylic acid propylamide)] | > 1000 | > 1000 | inhibitory | efficacy | – | – |
| – | 1.06 | – | > 180 | 86.5 | – | 60 | 81 | O=C(NC1CC1)C1C(=O)c2ccc(S(=O)(=O)c3ccc4c(c3)C(=O)C(C(=O)NC3CC3)C4=O)cc2C1=O (stereo not shown) [Example 34, 5,5′-sulphonylbis(1,3-dioxo-indan-2-carboxylic acid (cyclopropyl)-amide)] | – | – | inhibitory | – | modulate the activity of normalized P-selectin; also recorded: inhibition | efficacy |
